Patent publication US20130310379A1, “MODULATORS OF METHYL MODIFYING ENZYMES, COMPOSITIONS AND USES THEREOF” (CONSTELLATION PHARMACEUTICALS, priority 2010, published 2013)

biological target: EZH2 (Homo sapiens, UniProt Q15910); experiment: EZH2 assay: rPRC2 with biotinylated oligonucleosome substrates and 3H SAM, FlashPlate scintillation counting, IC50; type: biochemical; conditions: rPRC2, biotinylated oligonucleosome substrates, 3H SAM; read-out: EZH2 IC50
Procedure, shortened: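 rPRC2 (2 nM EZH2) pre-incubated 20 min with compound (80 to 0.16 uM, ten 2-fold steps), then 60 min reaction with 0.2 uM 3H SAM, 0.2 uM biotinylated oligonucleosomes, 3.6 uM H3K27me3 peptide in Tris pH 8.5. SAH/EDTA quench; 4-parameter IC50 fit.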

Chain of EZH2 (Q15910 whole entry): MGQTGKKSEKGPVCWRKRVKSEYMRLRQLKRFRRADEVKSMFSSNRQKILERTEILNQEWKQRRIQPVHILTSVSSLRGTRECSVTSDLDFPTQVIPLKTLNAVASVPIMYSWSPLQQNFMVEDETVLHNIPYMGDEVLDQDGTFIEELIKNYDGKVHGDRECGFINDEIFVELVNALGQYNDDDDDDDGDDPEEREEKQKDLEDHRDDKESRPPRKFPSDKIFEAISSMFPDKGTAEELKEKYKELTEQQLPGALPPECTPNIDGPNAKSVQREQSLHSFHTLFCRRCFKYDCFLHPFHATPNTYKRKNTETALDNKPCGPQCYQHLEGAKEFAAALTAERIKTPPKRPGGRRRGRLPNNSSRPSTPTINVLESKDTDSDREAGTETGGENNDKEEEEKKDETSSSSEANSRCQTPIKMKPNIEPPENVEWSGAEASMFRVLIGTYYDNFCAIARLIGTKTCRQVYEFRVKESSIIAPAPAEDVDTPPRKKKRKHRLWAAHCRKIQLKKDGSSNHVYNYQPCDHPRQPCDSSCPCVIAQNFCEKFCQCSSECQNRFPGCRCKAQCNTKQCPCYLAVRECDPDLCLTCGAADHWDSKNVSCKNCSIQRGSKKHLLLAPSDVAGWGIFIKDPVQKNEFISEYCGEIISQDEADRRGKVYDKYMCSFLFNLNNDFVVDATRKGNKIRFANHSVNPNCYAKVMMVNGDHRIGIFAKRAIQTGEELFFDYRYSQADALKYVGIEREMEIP
Chain of EZH2 (O75530 whole entry partner): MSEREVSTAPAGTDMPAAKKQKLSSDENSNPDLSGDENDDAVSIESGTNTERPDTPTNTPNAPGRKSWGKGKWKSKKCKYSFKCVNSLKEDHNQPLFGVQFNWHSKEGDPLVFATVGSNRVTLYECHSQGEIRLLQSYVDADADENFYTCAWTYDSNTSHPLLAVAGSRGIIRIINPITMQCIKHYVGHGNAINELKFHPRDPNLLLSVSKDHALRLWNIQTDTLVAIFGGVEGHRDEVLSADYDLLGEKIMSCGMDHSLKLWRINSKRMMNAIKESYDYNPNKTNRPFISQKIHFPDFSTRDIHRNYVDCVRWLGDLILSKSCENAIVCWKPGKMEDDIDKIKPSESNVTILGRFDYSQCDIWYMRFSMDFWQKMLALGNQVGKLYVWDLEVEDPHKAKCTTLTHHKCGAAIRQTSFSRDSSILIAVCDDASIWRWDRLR
Chain of EZH2 (Q15022 whole entry partner): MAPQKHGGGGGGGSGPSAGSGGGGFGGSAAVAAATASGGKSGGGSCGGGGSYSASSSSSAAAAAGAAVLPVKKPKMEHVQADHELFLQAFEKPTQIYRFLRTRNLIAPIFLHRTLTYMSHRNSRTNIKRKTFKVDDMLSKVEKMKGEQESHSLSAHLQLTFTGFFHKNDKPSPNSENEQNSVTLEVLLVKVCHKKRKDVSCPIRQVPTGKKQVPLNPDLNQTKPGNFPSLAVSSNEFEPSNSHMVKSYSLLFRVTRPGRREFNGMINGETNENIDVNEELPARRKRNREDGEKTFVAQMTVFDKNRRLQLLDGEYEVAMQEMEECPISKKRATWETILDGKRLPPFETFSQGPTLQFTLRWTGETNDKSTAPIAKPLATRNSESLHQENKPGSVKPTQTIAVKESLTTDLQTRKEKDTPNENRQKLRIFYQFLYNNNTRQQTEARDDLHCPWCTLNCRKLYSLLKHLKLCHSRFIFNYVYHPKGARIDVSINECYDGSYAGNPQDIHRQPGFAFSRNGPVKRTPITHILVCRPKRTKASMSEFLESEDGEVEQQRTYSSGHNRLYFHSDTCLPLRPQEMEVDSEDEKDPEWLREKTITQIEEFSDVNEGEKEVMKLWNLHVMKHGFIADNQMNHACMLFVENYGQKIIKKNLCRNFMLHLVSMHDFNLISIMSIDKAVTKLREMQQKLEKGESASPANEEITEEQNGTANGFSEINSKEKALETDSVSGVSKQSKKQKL

Row | Structure (SMILES) | IC50
1 | CC1(C)CC(NC(=O)N2CCC(c3ccccc3)C2)CC(C)(C)N1 (centres unmarked) [Compound I-470] | > 80 µM
2 | COc1cc(C(=O)NC2CC(C)(C)NC(C)(C)C2)cc2c1OCCO2 [Compound I-471] | > 80 µM
3 | CC1CC(NC(=O)c2ccc(Oc3cccc(-c4ccnnc4)c3C#N)c(Cl)c2)CC(C)N1 (centres unmarked) [Compound I-472] | < 5 µM
4 | N#Cc1c(Oc2ccc(C(=O)NC3CCN(CCO)CC3)cc2Cl)cccc1-c1ccnnc1 [Compound I-474] | 20 to 80 µM
5 | N#CCN1CCC(NC(=O)c2ccc(Oc3cccc(-c4ccnnc4)c3C#N)c(Cl)c2)CC1 [Compound I-475] | > 80 µM
6 | Cn1cc(-c2cccc(Oc3ccc(C(=O)NC4CC(C)(C)NC(C)(C)C4)cc3Cl)c2C#N)ccc1=O [Compound I-476] | < 5 µM
7 | CC1(C)CC(NC(=O)c2ccc(Oc3cccc(-c4ccnnc4)c3C#N)c(Cl)c2)CC(c2ccccc2)N1 (centres unmarked) [Compound I-477] | < 5 µM
8 | CC1CC(NC(=O)c2ccc(Oc3cccc(-c4ccnnc4)c3C#N)c(Cl)c2)CC(C)(C)N1 (centres unmarked) [Compound I-478] | < 5 µM
9 | CC(C#N)c1cccc(Oc2ccc(C(=O)NC3CC(C)(C)NC(C)(C)C3)cc2Cl)c1 (centres unmarked) [Compound I-479] | 20 to 80 µM
10 | CC1(C)CC(CC(=O)O)(NC(=O)c2ccc(Oc3cccc(-c4ccnnc4)c3C#N)c(Cl)c2)CC(C)(C)N1 [Compound I-482] | 20 to 80 µM
11 | CC1(C)CC(NC(C(=O)O)c2ccc(Oc3ccccc3C#N)c(Cl)c2)CC(C)(C)N1 (centres unmarked) [Compound I-483] | > 80 µM
12 | CC(c1ccccc1C#N)N1CCN(C(=O)NC2CC(C)(C)NC(C)(C)C2)CC1=O (centres unmarked) [Compound I-484] | > 80 µM
13 | N#CCCN1CCC(NC(=O)c2ccc(Oc3cccc(-c4ccnnc4)c3C#N)c(Cl)c2)CC1 [Compound I-485] | 20 to 80 µM
14 | N#Cc1c(Oc2ccc(C(=O)NC3CCN(CCN)CC3)cc2Cl)cccc1-c1ccnnc1 [Compound I-486] | 5 to 20 µM
15 | CC1(C)CC(NC(=O)c2ccc(Oc3cccc(OCC(N)=O)c3C#N)c(Cl)c2)CC(C)(C)N1 [Compound I-487] | < 5 µM
16 | Cc1nnc2n1-c1ccccc1C(c1ccc(C(=O)NC3CC(C)(C)NC(C)(C)C3)cc1)=NC2 [Compound I-488] | > 80 µM
17 | CC1(C)CC(NC(=O)c2ccc(Oc3ccccc3C#N)c(Cl)c2)CC(C)(C)N1CCCO [Compound I-489, 3-chloro-4-(2-cyanophenoxy)-N-(1-(3-hydroxypropyl)-2,2,6,6-tetramethylpiperidin-4-yl)benzamide] | < 5 µM
18 | CC1(C)CC(NC(=O)c2ccc(-n3ncc4c(Br)cccc43)c(Cl)c2)CC(C)(C)N1 [Compound I-490] | 5 to 20 µM
19 | CC1(C)CC(NC(=O)c2ccc(Oc3ccccc3C#N)c(Cl)c2)CC(=O)N1 (centres unmarked) [Compound I-491] | > 80 µM
20 | CC1(C)CC(NC(=O)c2ccc(-n3ccc4c(O)cccc43)c(Cl)c2)CC(C)(C)N1 [Compound I-492] | < 5 µM

Row | Structure (SMILES) | IC50
21 | CC1(C)CC(NC(=O)c2ccc(-n3ccc4cc(O)ccc43)c(Cl)c2)CC(C)(C)N1 [Compound I-494] | 20 to 80 µM
22 | CC1(C)CC(NC(=O)c2ccc(-n3cccn3)c(Cl)c2)CC(C)(C)N1 [Compound I-496] | > 80 µM
23 | CC1(C)CC(NC(=O)c2ccc(N3CCc4cccc(O)c4C3=O)c(Cl)c2)CC(C)(C)N1 [Compound I-498] | 5 to 20 µM
24 | COc1cc(-c2cccc(Oc3ccc(C(=O)NC4CC(C)(C)NC(C)(C)C4)cc3Cl)c2C#N)ccn1 [Compound I-500] | < 5 µM
25 | CC1(C)CC(NC(=O)c2ccc(Oc3cccc(CCC(N)=O)c3C#N)c(Cl)c2)CC(C)(C)N1 [Compound I-501] | < 5 µM
26 | CC1(C)CC(NC(=O)c2ccc(Oc3cccc(NCC(N)=O)c3C#N)c(Cl)c2)CC(C)(C)N1 [Compound I-502] | < 5 µM
27 | CC1(C)CC(NC(=O)c2ccc(Oc3ccccc3C#N)c(Cl)c2)CCN1 (centres unmarked) [Compound I-503] | 5 to 20 µM
28 | CC1(C)CC(NC(=O)c2ccc(Oc3cccc(-c4cccc(C#N)c4)c3C#N)c(Cl)c2)CC(C)(C)N1 [Compound I-505] | < 5 µM
29 | CC1(C)CC(NC(=O)c2ccc(Oc3cccc(-c4ccc(C#N)cc4)c3C#N)c(Cl)c2)CC(C)(C)N1 [Compound I-506] | < 5 µM
30 | CC1(C)CC(C)(NC(=O)c2ccc(Oc3cccc(-c4ccnnc4)c3C#N)c(Cl)c2)CC(C)(C)N1 [Compound I-507] | 20 to 80 µM
31 | Cc1cc(C(=O)NC2CC(C)(C)NC(C)(C)C2)ccc1Oc1cccc(-c2ccnnc2)c1C#N [Compound I-508] | < 5 µM
32 | CC1(C)CC(NC(=O)c2ccc(Oc3cccc(-c4ccnnc4)c3C#N)c(Cl)c2)CC(C)(C)S1 [Compound I-517] | 5 to 20 µM
33 | CC1(C)CC(NC(=O)c2ccc(Oc3cccc(-c4ccnnc4)c3C#N)c(Cl)c2)CC(C)(C)[S+]1[O-] (centres unmarked) [Compound I-518] | 20 to 80 µM
34 | CC1(C)CC(NC(=O)c2ccc(Oc3cccc(-c4ccnnc4)c3C#N)c(Cl)c2)CC(=O)N1 (centres unmarked) [Compound I-519] | 20 to 80 µM
35 | CC1(C)CC(NC(=O)c2ccc(Oc3cncc(-c4ccncc4)c3C#N)c(Cl)c2)CC(C)(C)N1 [Compound I-520] | < 5 µM
36 | CC1(C)CC(NC(=O)c2ccc(N3C(=O)COc4ccccc43)c(Cl)c2)CC(C)(C)N1 [Compound I-522] | 20 to 80 µM
37 | CC1(C)CC(NC(=O)c2ccc(Oc3cccc4c3C(=O)NCC4)c(Cl)c2)CC(C)(C)N1 [Compound I-525] | 5 to 20 µM
38 | CC1(C)CC(NC(=O)c2ccc(Oc3cccc(-c4ccc(C#N)nc4)c3C#N)c(Cl)c2)CC(C)(C)N1 [Compound I-526] | < 5 µM
39 | CC1(C)CC(NC(=O)c2ccc(Oc3cccc(-c4ccc(C(N)=O)nc4)c3C#N)c(Cl)c2)CC(C)(C)N1 [Compound I-527] | < 5 µM
40 | CC1(C)CC(NC(=O)c2ccc(Oc3cccc(-c4cncc(F)c4)c3C#N)c(Cl)c2)CC(C)(C)N1 [Compound I-528] | < 5 µM

Row | Structure (SMILES) | IC50
41 | CC1(C)CC(NC(=O)c2ccc(Oc3cccc(C4=CCOCC4)c3C#N)c(Cl)c2)CC(C)(C)N1 [Compound I-529] | < 5 µM
42 | CC1(C)CC(NC(=O)c2ccc(Oc3cccc(C4CCOC4)c3C#N)c(Cl)c2)CC(C)(C)N1 (centres unmarked) [Compound I-530] | < 5 µM
43 | CC1(C)CC(NC(=O)c2ccc(Oc3cccc(C4CCOCC4)c3C#N)c(Cl)c2)CC(C)(C)N1 [Compound I-531] | < 5 µM
44 | CC1(C)CC(NC(=O)c2ccc(Oc3cccc(C4CCNCC4)c3C#N)cc2)CC(C)(C)N1 [Compound I-534] | < 5 µM
45 | CC1(C)CC(NC(=O)c2ccc(Oc3cccc(C4CCNCC4)c3C#N)c(Cl)c2)CC(C)(C)N1 [Compound I-535] | < 5 µM
46 | CC(=O)N1CCC(c2cccc(Oc3ccc(C(=O)NC4CC(C)(C)NC(C)(C)C4)cc3Cl)c2C#N)CC1 [Compound I-537] | < 5 µM
47 | CC1(C)CC(NC(=O)c2ccc(Oc3cccc(-c4cnc(N)nc4)c3C#N)c(Cl)c2)CC(C)(C)N1 [Compound I-538] | < 5 µM
48 | CC1(C)CC(NC(=O)c2ccc(Oc3cccc(-c4ccc(N5CCNCC5)nc4)c3C#N)c(Cl)c2)CC(C)(C)N1 [Compound I-549] | < 5 µM
49 | CN1CCN(c2ccc(-c3cccc(Oc4ccc(C(=O)NC5CC(C)(C)NC(C)(C)C5)cc4Cl)c3C#N)cn2)CC1 [Compound I-550] | < 5 µM
50 | CNC(=O)CCc1cccc(Oc2ccc(C(=O)NC3CC(C)(C)NC(C)(C)C3)cc2Cl)c1C#N [Compound I-551] | < 5 µM
51 | CN(C)C(=O)CCc1cccc(Oc2ccc(C(=O)NC3CC(C)(C)NC(C)(C)C3)cc2Cl)c1C#N [Compound I-552] | < 5 µM
52 | CC1(C)CC(NC(=O)c2ccc(Oc3cccc(CCC(=O)N4CCCC4)c3C#N)c(Cl)c2)CC(C)(C)N1 [Compound I-553] | < 5 µM
53 | COCCNC(=O)CCc1cccc(Oc2ccc(C(=O)NC3CC(C)(C)NC(C)(C)C3)cc2Cl)c1C#N [Compound I-554] | < 5 µM
54 | CN1CCN(C(=O)CCc2cccc(Oc3ccc(C(=O)NC4CC(C)(C)NC(C)(C)C4)cc3Cl)c2C#N)CC1 [Compound I-555] | < 5 µM
55 | CN(C)c1ccc(-c2cccc(Oc3ccc(C(=O)NC4CC(C)(C)NC(C)(C)C4)cc3Cl)c2C#N)cn1 [Compound I-557] | < 5 µM
56 | CC(Cc1cccc(Oc2ccc(C(=O)NC3CC(C)(C)NC(C)(C)C3)cc2Cl)c1C#N)C(N)=O (centres unmarked) [Compound I-559] | < 5 µM
57 | CC1(C)CC(NC(=O)c2ccc(Oc3cccc(C4CCCN4)c3C#N)c(Cl)c2)CC(C)(C)N1 (centres unmarked) [Compound I-562] | < 5 µM
58 | CNC(=O)CC1(NC(=O)c2ccc(Oc3cccc(-c4ccnnc4)c3C#N)c(Cl)c2)CC(C)(C)NC(C)(C)C1 [Compound I-570] | > 80 µM
59 | CC(=O)Nc1ccc(-c2cccc(OCc3ccc(C(=O)NC4CC(C)(C)NC(C)(C)C4)cc3)c2)cn1 [Compound I-593] | < 5 µM
